From patent publication US4921849A, “Injection containing 3-benzoyloxy-1,3,5(10)-estratriene-17-[4-{p-(bis(2-chloroethyl)amino)phe nyl}butanoyloxy)acetate as an active ingredient” (priority 1987, dated 1990)

Columns and labels:
[1] = tested on: Walker 256 carcino sarcoma; assay: Life span of rats bearing Walker 256 carcino sarcoma after injection from the femoral artery; type: in vivo, female Wistar rats; conditions: for elongated life time (T/C=test/control): control = physiological saline; for mean survival days (MST): right femoral artery, 8th or 9th day after transplantation
Experimental: A predetermined amount (shown in Table 1) of 3-benzoyloxy-1,3,5(10)-estratriene-17β-[4-{p-(bis(2-chloroethyl)amino)phenyl}butanoyloxy]acetate or adriamycin was added to 6.5 g of LIPIODOL® and the mixture was stirred for 15 minutes at 25° C. to obtain a solution as the injection of each active ingredient. Each solution was put into a sterilized vials.
A walker 256 carcino sarcoma (solid) of about 3 mm square in size was transplanted subcutaneously to the left brachial part and the left femoral part of each of female Wistar rats (the age of 6 weeks and one group consisting of 5 animals) of respective group.
On the 8th or 9th day after the transplantation, each of the injections prepared in Example 1 was injected into each rat of respective testing group from the right femoral artery by a catheter and physiological saline solution or 6.5 g of LIPIODOL® was injected into each rat of the control group or the LIPIODOL group in the same manner as above.
After having observed the state of the test animals, the mean survival days (MST) and the elongated life time (T/C=test/control) were calculated.

estradiol receptor = conditions: cited from earlier work
cells = conditions: cited from earlier work
Acute toxicity in rats = type: in vivo
Experimental: Concerning an acute toxicity (LD50) of the present derivative, even when rats were administered orally with the maximum administrable amount (6,000 mg/kg), no death case has been observed and when rats were injected intraperitoneally in a form of sesame oil solution, its LD50 has been over 3,000 mg/kg. Accordingly, the present derivative is a medicine extremely high in safety. In a mean while, LD50 of LIPIODOL® has been 7,000 mg/kg when it was administered intravenously to rabbits.

Solubility in oils = type: physicochemical
[2] = cited from earlier work
[3] = oral administration; cited from earlier work

Structure (SMILES) | elongated life time (T/C=test/control) ([1]; 10 mg in 6.5 g of LIPIODOL) [%] | mean survival days (MST) ([1]; 10 mg in 6.5 g of LIPIODOL) [days] | elongated life time (T/C=test/control) ([1]; 100 mg in 6.5 g of LIPIODOL) [%] | mean survival days (MST) ([1]; 100 mg in 6.5 g of LIPIODOL) [days] | affinity to the estradiol-receptor (estradiol receptor) | decomposition/conversion within cells (cells) | stability in cells (cells) | death cases (acute toxicity) (Acute toxicity in rats; orally, maximum administrable amount 6,000 mg/kg) | LD50 (Acute toxicity in rats; rat, in vivo, ip, intraperitoneally, sesame oil solution) [mg/kg] | solubility in ester of iodinated poppy oil fatty acid (Solubility in oils; ester of iodinated poppy oil fatty acid) | solubility in ordinary oils (Solubility in oils; ordinary oils) | stability in vivo [2] | accumulation in cancer cells versus normal cells ([2]; in vivo) | adsorption rate in intestines [3]
COc1cccc2c1C(=O)c1c(O)c3c(c(O)c1C2=O)C[C@@](O)(C(=O)CO)C[C@@H]3O[C@H]1C[C@H](N)[C@H](O)[C@H](C)O1 [Adriamycin] | 140.7 | 24.5 | < 5.7 | < 1 | – | – | – | – | – | – | – | – | – | –
C[C@]12CC[C@@H]3c4ccc(O)cc4CC[C@H]3[C@@H]1CC[C@@H]2OC(=O)COC(=O)CCCc1ccc(N(CCCl)CCCl)cc1 [KM-2202, 3-hydroxy-1,3,5(10)-estratriene-17-[4-{p-(bis(2-chloroethyl)amino)phenyl}butanoyloxy]-acetate] | – | – | – | – | has an affinity to the estradiol receptor | decomposed slowly into estradiol and chlorambucil within cells | relatively unstable in cells | – | – | – | – | – | – | –
C[C@]12CC[C@@H]3c4ccc(OC(=O)c5ccccc5)cc4CC[C@H]3[C@@H]1CC[C@@H]2OC(=O)COC(=O)CCCc1ccc(N(CCCl)CCCl)cc1 [present derivative, 3-benzoyloxy-1,3,5(10)-estratriene-17-[4-{p-(bis(2-chloroethyl)amino)phenyl}-butanoyloxy]acetate] | – | – | 234.3 | 41.0 | scarcely any function as an alkylating agent and any affinity to the estradiol-receptor | hydrolyzed by an enzyme | – | no death case | > 3000 | can be uniformly dissolved in the ester | does not completely dissolve in ordinary oils | relatively stable in vivo | accumulates in larger amount in cancer cells than in normal cells | low adsorption rate
